These results are taken from patent US20240174662A1, “SMALL MOLECULE INHIBITORS OF SALT INDUCIBLE KINASES” (Janssen Biotech, Inc., priority 2021, published 2024).

For orientation: IC50 means the concentration needed to halve the response being measured. Low values mean greater potency in that assay, high ones weaker potency in that assay.

The target in this assay is SIK2 (Homo sapiens (Human), UniProt Q9H0K1). The assay is described as follows: SIK2 Enzymatic Assay Version 2 (High ATP). As to conditions: 3 mM ATP and 200 μM HDAC5tide final, ADP-Glo Max luminescence. The class given is biochemical. The method in brief: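 Run at room temperature; SIK2 enzyme at 6 nM (2× final) preincubated with compound 30 min before reaction. ADP formation detected by ADP-Glo Max (2 h reagent, 1 h detection) with luminescence read-out.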
Sequence of SIK2 (Q9H0K1 whole entry, species assumed): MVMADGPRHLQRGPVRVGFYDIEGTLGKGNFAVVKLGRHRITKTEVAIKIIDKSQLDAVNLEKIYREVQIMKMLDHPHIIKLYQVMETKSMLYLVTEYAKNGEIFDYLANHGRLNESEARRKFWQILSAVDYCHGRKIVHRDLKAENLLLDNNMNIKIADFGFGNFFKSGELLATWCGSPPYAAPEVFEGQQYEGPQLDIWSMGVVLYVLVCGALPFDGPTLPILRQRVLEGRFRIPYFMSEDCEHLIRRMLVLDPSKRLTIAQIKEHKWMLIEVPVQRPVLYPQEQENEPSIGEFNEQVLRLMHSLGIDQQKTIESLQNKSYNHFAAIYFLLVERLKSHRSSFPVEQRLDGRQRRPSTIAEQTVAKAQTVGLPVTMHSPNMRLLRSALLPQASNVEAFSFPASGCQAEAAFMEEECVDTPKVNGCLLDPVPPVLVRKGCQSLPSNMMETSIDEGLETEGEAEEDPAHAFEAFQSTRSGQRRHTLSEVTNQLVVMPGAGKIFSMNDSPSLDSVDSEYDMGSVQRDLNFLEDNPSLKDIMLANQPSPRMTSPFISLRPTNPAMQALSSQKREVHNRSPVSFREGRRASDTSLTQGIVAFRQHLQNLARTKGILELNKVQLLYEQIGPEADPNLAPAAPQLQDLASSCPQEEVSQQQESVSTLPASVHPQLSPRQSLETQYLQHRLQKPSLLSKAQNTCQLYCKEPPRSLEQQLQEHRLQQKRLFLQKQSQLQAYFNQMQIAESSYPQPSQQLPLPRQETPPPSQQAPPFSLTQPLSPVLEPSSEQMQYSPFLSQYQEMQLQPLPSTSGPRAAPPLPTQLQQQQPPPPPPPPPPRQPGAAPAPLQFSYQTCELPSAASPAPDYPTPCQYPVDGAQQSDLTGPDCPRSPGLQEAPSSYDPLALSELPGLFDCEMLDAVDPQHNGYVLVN
A general note: ADP-Glo first removes unused ATP, then detects ADP through luciferase.
In turn, `Cn1ncc(CO[C@H]2CNCC2(F)F)c1-c1ccn2nc(NC(=O)C3CC3)cc2c1` (single isomer, unassigned) [Example 465, (*S)—N-[5-[4-[(4,4-difluoropyrrolidin-3-yl)oxymethyl]-2-methyl-pyrazol-3-yl]pyrazolo[1,5-a]pyridin-2-yl]cyclopropanecarboxamide] came in with an IC50 of 74.9 nM.

`Cc1cc(Nc2cc3cc(-c4c(OC[C@H]5CCN5CCF)cnn4C)ccn3n2)nc(C)n1` [Example 274, N-(2,6-dimethylpyrimidin-4-yl)-5-[4-[[(2R)-1-(2-fluoroethyl)azetidin-2-yl]methoxy]-2-methyl-pyrazol-3-yl]pyrazolo[1,5-a]pyridin-2-amine] returned an IC50 of 0.9 nM.

Take `CO[C@H]1CNC[C@H]1Oc1noc(C)c1-c1ccn2nc(NC(=O)C3CC3)cc2c1` [Example 88, N-[5-[3-[(3R,4S)-4-methoxypyrrolidin-3-yl]oxy-5-methyl-isoxazol-4-yl]pyrazolo[1,5-a]pyridin-2-yl]cyclopropanecarboxamide]: 11.5 nM corresponded to half-maximal inhibition (IC50).

Take `CC(C)c1nccc(Nc2cc3cc(-c4c(O[C@H]5CCN(C)C5)cnn4C)ccn3n2)n1` [Example 270, N-(2-isopropylpyrimidin-4-yl)-5-[2-methyl-4-[(3S)-1-methylpyrrolidin-3-yl]oxy-pyrazol-3-yl]pyrazolo[1,5-a]pyridin-2-amine]: half-maximal inhibition (IC50) required 47.7 nM.

Take `CCN1CC[C@@H]1COc1cnn(C)c1-c1ccn2nc(Nc3cc(OC)ncn3)cc2c1` [Example 167, 5-[4-[[(2R)-1-ethylazetidin-2-yl]methoxy]-2-methyl-pyrazol-3-yl]-N-(6-methoxypyrimidin-4-yl)pyrazolo[1,5-a]pyridin-2-amine]: the IC50 worked out at 2.7 nM.

Turning to `CN1CC[C@H](Oc2cnn(C)c2-c2ccn3nc(Nc4cc5ccccn5n4)cc3c2)C1` [Example 344, 5-[2-methyl-4-[(3S)-1-methylpyrrolidin-3-yl]oxy-pyrazol-3-yl]-N-pyrazolo[1,5-a]pyridin-2-yl-pyrazolo[1,5-a]pyridin-2-amine], the IC50 is 56 nM.

In turn, `CCN1CC[C@@H]1COc1cnn(C)c1-c1ccn2nc(Nc3cc(C)c(C)nn3)cc2c1` [Example 18, (R)—N-(5,6-Dimethylpyridazin-3-yl)-5-(4-((1-ethylazetidin-2-yl)methoxy)-1-methyl-1H-pyrazol-5-yl)pyrazolo[1,5-a]pyridin-2-amine] gave an IC50 of 1 nM.

`Cc1cc(Nc2cc3cc(-c4c(CO[C@@H]5CN(C)C[C@H]5C)cnn4C)ccn3n2)nc(C)n1` (racemic) [Example 364, Rac-N-(2,6-dimethylpyrimidin-4-yl)-5-[4-[(1,4-dimethylpyrrolidin-3-yl)oxymethyl]-2-methyl-pyrazol-3-yl]pyrazolo[1,5-a]pyridin-2-amine] came in with an IC50 of 2.4 nM.

For the molecule `COC[C@@H]1C[C@H](Oc2noc(C)c2-c2ccn3nc(Nc4cc(C)c(C)nn4)cc3c2)CN1C` [Example 391, N-(5,6-dimethylpyridazin-3-yl)-5-[3-[(3S,5S)-5-(methoxymethyl)-1-methyl-pyrrolidin-3-yl]oxy-5-methyl-isoxazol-4-yl]pyrazolo[1,5-a]pyridin-2-amine], the IC50 is 94.1 nM.

For `Cc1cc(Nc2cc3cc(-c4c(OC[C@H]5CCN5C)cnn4C)ccn3n2)nc(C(C)(C)C)n1` [Example 151, N-(2-tert-butyl-6-methyl-pyrimidin-4-yl)-5-[2-methyl-4-[[(2R)-1-methylazetidin-2-yl]methoxy]pyrazol-3-yl]pyrazolo[1,5-a]pyridin-2-amine], the half-inhibitory concentration (IC50) is < 0.847 nM.

Molecule `CCN1CC[C@@H]1COc1cnn(C)c1-c1ccn2nc(Nc3cc(C)ncn3)cc2c1` [Example 19, 5-[4-[[(2R)-1-Ethylazetidin-2-yl]methoxy]-2-methyl-pyrazol-3-yl]-N-(6-methylpyrimidin-4-yl)pyrazolo[1,5-a]pyridin-2-amine] yielded an IC50 of 1.2 nM.

Molecule `[2H]C([2H])([2H])C([2H])([2H])N1CC[C@@H]1COc1cnn(C)c1-c1ccn2nc(Nc3cc(C)nc(C)n3)cc2c1` [Example 294, N-(2,6-dimethylpyrimidin-4-yl)-5-[2-methyl-4-[[(2R)-1-(1,1,2,2,2-pentadeuterioethyl)azetidin-2-yl]methoxy]pyrazol-3-yl]pyrazolo[1,5-a]pyridin-2-amine] yielded an IC50 of 2.6 nM.

Turning to `Cn1ncc(OC[C@H]2CCN2CC(C)(C)C#N)c1-c1ccn2nc(NC(=O)C3CC3)cc2c1` [Example 255, N-[5-[4-[[(2R)-1-(2-cyano-2-methyl-propyl)azetidin-2-yl]methoxy]-2-methyl-pyrazol-3-yl]pyrazolo[1,5-a]pyridin-2-yl]cyclopropanecarboxamide], the IC50 was found to be 51.8 nM.

As for `Cc1cc(Nc2cc3cc(-c4c(OC[C@H]5C[C@H](C)CN5C)cnn4C)ccn3n2)nc(C)n1` [Example 305, N-(2,6-dimethylpyrimidin-4-yl)-5-[4-[[(2R,4S)-1,4-dimethylpyrrolidin-2-yl]methoxy]-2-methyl-pyrazol-3-yl]pyrazolo[1,5-a]pyridin-2-amine], inhibition was half-maximal at 16.1 nM (IC50).

In the case of `Cc1onc(O[C@H]2CNCC2F)c1-c1ccn2nc(NC(=O)C3CC3)cc2c1` (single isomer, unassigned) [Example 210, N-(5-(3-(((3*S,4*R)-4-fluoropyrrolidin-3-yl)oxy)-5-methylisoxazol-4-yl)pyrazolo[1,5-a]pyridin-2-yl)cyclopropanecarboxamide], 7.5 nM corresponded to half-maximal inhibition (IC50).

`CCN1CC[C@@H]1COc1cnn(C)c1-c1ccn2nc(NC(=O)[C@H]3C[C@@H]3C)cc2c1` [Example 25, (1S,2S)—N-[5-[4-[[(2R)-1-ethylazetidin-2-yl]methoxy]-2-methyl-pyrazol-3-yl]pyrazolo[1,5-a]pyridin-2-yl]-2-methyl-cyclopropanecarboxamide] showed an IC50 of 5.8 nM.

Consider `Cc1onc(OCC2(F)CN(C)C2)c1-c1ccn2nc(NC(=O)C3CC3)cc2c1` [Example 84, N-[5-[3-[(3-fluoro-1-methyl-azetidin-3-yl)methoxy]-5-methyl-isoxazol-4-yl]pyrazolo[1,5-a]pyridin-2-yl]cyclopropanecarboxamide], for which half-maximal inhibition (IC50) required 204 nM.

`Cc1ccc(Nc2cc3cc(-c4c(OC[C@H]5CCN5C)cnn4C(F)F)ccn3n2)nn1` [Example 98, 5-[2-(difluoromethyl)-4-[[(2R)-1-methylazetidin-2-yl]methoxy]pyrazol-3-yl]-N-(6-methylpyridazin-3-yl)pyrazolo[1,5-a]pyridin-2-amine] yielded an IC50 of 7.9 nM.

Take `C[C@H]1C[C@H](Oc2cnn(C)c2-c2ccn3nc(NC(=O)C4CC4)cc3c2)CN1` [Example 338, N-[5-[2-methyl-4-[(3S,5S)-5-methylpyrrolidin-3-yl]oxy-pyrazol-3-yl]pyrazolo[1,5-a]pyridin-2-yl]cyclopropanecarboxamide]: the IC50 turned out to be 53 nM.

For `Cc1onc(O[C@H]2C[C@H](N)C2)c1-c1ccn2nc(NC(=O)C3CC3)cc2c1` [Example 386, N-[5-[3-(3-aminocyclobutoxy)-5-methyl-isoxazol-4-yl]pyrazolo[1,5-a]pyridin-2-yl]cyclopropanecarboxamide], it took 111 nM to reach half-maximal inhibition (IC50).

`CN1CCC(Oc2cnn(C)c2-c2ccn3nc(NC(=O)C4CC4)cc3c2)CC1` [Example 492, N-[5-[2-methyl-4-[(1-methyl-4-piperidyl)oxy]pyrazol-3-yl]pyrazolo[1,5-a]pyridin-2-yl]cyclopropanecarboxamide] registered an IC50 of 432 nM.
